2 compounds from patent US20100273206A1, “DIAGNOSTIC IN VITRO METHOD FOR ASSESSING VON WILLEBRAND DISEASE AND INCREASED BLEEDING RISK ASSOCIATED WITH VON WILLEBRAND DISEASE AND ACQUIRED OR CONGENITAL DISORDERS OF PLATELET FUNCTION” (priority 2007, published 2010) can be followed below.

For test [1], the system named is citrate-stabilized blood (platelets and VWF). Nature of the test: TEG maximal amplitude with versus without ristocetin preincubation. Type of test: cell-based, human. Conditions: for maximal amplitude after ristocetin preincubation relative to maximal amplitude without preincubation: 25 μL of 15 mg/mL ristocetin per 500 μL, 10 min. The procedure:
If TEG is the assay to determine the viscoelastic change the platelet activation in response to the activator of platelet aggregation for example ristocetin can by way of non limiting example be determined from the maximum amplitudes in the control without added platelet activator (MA) and the sample with the added platelet activator Ristocetin (MARistocetin): which can then be expressed as the ratio (MARistocetin/MA)*100. The percentage change is determined to assess individual subject's responses, thus providing an indication of relative response to a certain dose of ristocetin.
Analyser and the reagents were from Haemoscope Corporation. 1.3 mL of blood was collected in 3.18% trisodium citrate (1:9 anticoagulant to blood). One millilitre of citrate-stabilized blood was transferred to a vial containing a standardized kaolin reagent and mixed by inversion. The mixture was mixed well and divided into two 500 μL aliquots. 25 μL ristocetin at a concentration of 15 mg mL^−1 was added to one part of the activated blood aliquots and both samples were incubated on a mixer for 10 min. 360 μL of both aliquots were filled to TEG assay cups and 20 μL of 0.2 M CaCl2 were added. The TEG tracings were allowed to run as least until the maximal amplitude was reached.
According to the procedure in example 2 blood samples from healthy patients and patients with from VWD were tested. All VWD samples derived from patients diagnosed as having VWD using standard criteria. In addition to VWD plasma, a number of normal samples were also collected and used for comparative studies. The platelet activation in response to ristocetin is determined from the maximum amplitudes in the control (MA) and ristocetin activated trace (MARistocetin): MARicocetin/MA*100. The percentage change was calculated to assess individual subject's responses, thus providing an indication of relative response to a certain dose of ristocetin (0.71 mg/ml and 1,05 mg/ml final concentration). The Kaolin induced sample without adding ristocetin acted as the control measurement. […] Almost all platelets are deactivated and no more platelet contribution to the clot strength is detectable.

The test system of test [2] is citrate-stabilized blood from a healthy patient. Description: TEG (Rotem) of kaolin-activated citrated blood incubated with increasing amounts of ristocetin. It is filed as cell-based, human. Conditions: 10 min incubation, increasing final ristocetin concentration (up to 1.05 mg/ml). The procedure: Citrate-stabilized blood from a healthy patient was transferred to a vial containing a standardized kaolin reagent and mixed by inversion The kaolin reagent was purchased from Haemoscope Corporation. The mixture was mixed well and divided into two 500 μL aliquots. Different amounts of ristocetin at a concentration of 15 mg mL^−1 was added to one part of the activated blood aliquots and both samples were incubated on a mixer for 10 min. 300 μL of both aliquots were filled to TEG assay cups and 20 μL of 0.2 M CaCl2 were added. The TEG tracings were allowed to run as least until the maximal amplitude was reached using a Rotem Analyser. […] Dependent of the final ristocetin concentration a decrease of the maximal amplitude and an increase in the clotting time were observed.

The subject of a further test is VWD type 1 patients. Nature of the test: In vivo therapy control (DDAVP). The arrangement: species or system human. Conditions: three VWD type 1 patients; before, 30 min and 180 min after DDAVP. From the text:
Therapy in VWD may be necessary to alleviate a bleeding episode or to prevent bleeding episode. Most individuals with type 1 VWD generally are managed effectively using DDAVP (Desmopressin acetate), which acts to release endogenous stored VWF. It is usual to conduct a trial of DDAVP and then monitor the response by subsequent blood sampling and testing. […] The method is a simple and rapid tool to discriminate responders from nonresponders to DDAVP. The advantage of this method is the close to immediate test time obtained. The result is available very soon after blood sampling. In contrast the VWF:CB result is generally obtained some days after blood sampling. The values for the amplitude ratio, the VWF:Ag and VWF-RCo are shown in figure 7 for three time points (before, 30 min after and 180 min after administration of DDAVP).

For ristocetin, the “maximal amplitude after ristocetin preincubation relative to maximal amplitude without preincubation” value in test [1] (blood from a VWD type 1 patient) is given as “about 75%”; in test [1] (blood from a VWD type 3 patient), ~100%; in test [1] (normal blood), “about 20%”. For the same compound, in test [1] (patients with VWD, 0.71 mg/ml and 1,05 mg/ml final concentration), the “clot strength after ristocetin incubation” value is “not or only slightly modified”. In addition, the “maximum amplitude after incubation with ristocetin” value in test [1] (patients without VWD, 0.71 mg/ml and 1,05 mg/ml final concentration) is “significant decrease”. In test [2], the clotting time entry is “increase”. For the same compound, the maximal amplitude entry in test [2] was “decrease”.
On to `NC(=O)CC[C@@H]1NC(=O)[C@H](Cc2ccccc2)NC(=O)[C@H](Cc2ccc(O)cc2)NC(=O)CCSSC[C@@H](C(=O)N2CCC[C@H]2C(=O)N[C@H](CCCN=C(N)N)C(=O)NCC(N)=O)NC(=O)[C@H](CC(N)=O)NC1=O` [DDAVP, Desmopressin acetate], for which, in the test with VWD type 1 patients, the “TEG ratio (maximal amplitude with ristocetin/without ristocetin)*100” value is “normalize”, the “VWF:Ag” value is recorded as “increase” and the ristocetin cofactor activity entry is given as “increase”.
